Measured values from patent US4740233A, “Substituted 1,2,4-triazolo[1,5-a]-pyrimidine-2-sulfonamides and compositions and methods of controlling undesired vegetation and suppressing the nitrification of ammonium nitrogen in soil” (The Dow Chemical Company, priority 1986, dated 1988).

Assays:
rice [1] = experiment: Preemergent control of plant species; format: in vivo, Oryza sativa; details: Oryza sativa, pre-emergence, 336 h; 0.25 lb/acre; read-out: percent preemergent control
Method in brief: (§1)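 Seeds planted in good agricultural soil beds; active ingredients then applied to the bed surface as aqueous emulsion at listed rates. Beds kept two weeks in greenhouse with watering. Control scored against water-treated beds.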

yellow nutsedge [2] = experiment: Preemergent control of plant species; format: in vivo, Cyperus esculentus; details: Cyperus, pre-emergence, 336 h; 0.25 lb/acre; read-out: percent preemergent control
Method in brief: as §1

johnson grass = experiment: Preemergent control of plant species; format: in vivo, Sorghum halepense; details: Sorghum halepense, pre-emergence, 336 h; 0.25 lb/acre; read-out: percent preemergent control
Method in brief: as §1

annual morning glory = experiment: Preemergent control of plant species; format: in vivo, Ipomoea spp.; details: Ipomoea, pre-emergence, 336 h; 0.25 lb/acre; read-out: percent preemergent control
Method in brief: as §1

wheat = experiment: Preemergent control of plant species; format: in vivo, Triticum aestivum; details: Triticum aestivum, pre-emergence, 336 h; 0.25 lb/acre; read-out: percent preemergent control
Method in brief: as §1

yellow foxtail = experiment: Preemergent control of plant species; format: in vivo, Setaria lutescens; details: Setaria, pre-emergence, 336 h; 0.25 lb/acre; read-out: percent preemergent control
Method in brief: as §1

jimsonweed = experiment: Preemergent control of plant species; format: in vivo, Datura stramonium; details: Datura stramonium, pre-emergence, 336 h; 0.25 lb/acre; read-out: percent preemergent control
Method in brief: as §1

soybean = experiment: Preemergent control of plant species; format: in vivo, Glycine max.; details: Glycine max, pre-emergence, 336 h; 0.25 lb/acre; read-out: percent preemergent control
Method in brief: as §1

barnyardgrass [3] = experiment: Preemergent control of plant species; format: in vivo, Echinochloa crusgalli; details: Echinochloa crus-galli, pre-emergence, 336 h; 0.25 lb/acre; read-out: percent preemergent control
Method in brief: as §1

cotton = experiment: Preemergent control of plant species; format: in vivo, Gossypium spp.; details: Gossypium hirsutum, pre-emergence, 336 h; 0.25 lb/acre; read-out: percent preemergent control
Method in brief: as §1

sugar beet = experiment: Preemergent control of plant species; format: in vivo, Beta saccharifera; details: Beta vulgaris, pre-emergence, 336 h; 0.25 lb/acre; read-out: percent preemergent control
Method in brief: as §1

pigweed = experiment: Preemergent control of plant species; format: in vivo, Amaranthus spp.; details: Amaranthus retroflexus, pre-emergence, 336 h; 0.25 lb/acre; read-out: percent preemergent control
Method: (§2) The seeds of various species of plants were planted in beds of good agricultural soil in a greenhouse. A number of compositions of the present invention, generally in the nature of an aqueous emulsion, were applied at rates listed in the table so as to deposit a predetermined amount of active ingredients uniformly throughout the surface of the bed. Another seed bed was treated only with water to serve as a control. After treatment the seed beds were maintained for two weeks under greenhouse conditions conducive for good plant growth and watered as necessary. Control refers to the reduction in growth compared to the observed results of the same untreated species.

crabgrass = experiment: Preemergent control of plant species; format: in vivo, Digitaria spp.; details: Digitaria sanguinalis, pre-emergence, 336 h; 0.25 lb/acre; read-out: percent preemergent control
Method: as §2

velvetleaf = experiment: Preemergent control of plant species; format: in vivo, Abutilon theophrasti; details: Abutilon theophrasti, pre-emergence, 336 h; 0.25 lb/acre; read-out: percent preemergent control
Method in brief: as §1

corn = experiment: Preemergent control of plant species; format: in vivo, Zea mays; details: Zea mays, pre-emergence, 336 h; 0.25 lb/acre; read-out: percent preemergent control
Method in brief: as §1

wild oats = experiment: Preemergent control of plant species; format: in vivo; details: Avena fatua, pre-emergence, 336 h; 0.25 lb/acre; read-out: percent preemergent control
Method in brief: as §1

rape = experiment: Preemergent control of plant species; format: in vivo, Brassica napus; details: Brassica napus, pre-emergence, 336 h; 0.25 lb/acre; read-out: percent preemergent control
Method in brief: as §1

[4] = system: nitrification of ammonium nitrogen; experiment: Suppression of nitrification of ammonium nitrogen in soil; details: 27° C.
Method in brief: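 Value is % NH4-N remaining after a two-week, 27° C incubation of treated soil held at 1/3 bar tension moisture. Nitrate was measured with an ion-selective electrode after extraction with ammonium sulfate solution and 10 min shaking.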

sorghum = experiment: Preemergent control of plant species; format: in vivo, Sorghum vulgare; details: Sorghum, pre-emergence, 336 h; 0.25 lb/acre; read-out: percent preemergent control
Method in brief: as §1

sprangletop = experiment: Control of aquatic plant species (paddy water); format: in vivo, Leptochloa filiformis; details: Leptochloa filiformis, 216 h; 2.0 Kg/Ha, nine days; read-out: Percent control
Method in brief: (§3)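 Percent control is scored nine days after treatment. Plants go into about 2 inches of soil at the 1-2 inch stage and are flooded to about 1 inch, then test compound in acetone concentrate is injected into the standing water at a volume chosen for the desired concentration.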

yellow nutsedge [5] = experiment: Control of aquatic plant species (paddy water); format: in vivo, Cyperus esculentus; details: Cyperus, 216 h; 2.0 Kg/Ha, nine days; read-out: Percent control
Method in brief: as §3

barnyardgrass [6] = experiment: Control of aquatic plant species (paddy water); format: in vivo, Echinochloa crusgalli; details: Echinochloa crus-galli, 216 h; 2.0 Kg/Ha, nine days; read-out: Percent control
Method: In testing for such utility, the plant species to be tested were transplanted into 16 oz. containers into about 2 inches of soil when they were in the 1-2 inch stage and then flooded to a depth of about 1 inch. An acetone concentrate of the chemical to be tested was then injected into the paddy water, the volume injected being varied as desired to provide the desired concentration. Percent control was evaluated nine days after application.

rice [7] = experiment: Control of aquatic plant species (paddy water); format: in vivo, Oryza sativa; details: Oryza sativa, 216 h; 2.0 Kg/Ha, nine days; read-out: Percent control
Method in brief: as §3

Row | SMILES | plant injury at 280.212 g/ha (rice [1]) | pest or weed control at 280.212 g/ha (yellow nutsedge [2]) | pest or weed control at 280.212 g/ha (johnson grass) | pest or weed control at 280.212 g/ha (annual morning glory) | plant injury at 280.212 g/ha (wheat) | pest or weed control at 280.212 g/ha (yellow foxtail) | pest or weed control at 280.212 g/ha (jimsonweed) | plant injury at 280.212 g/ha (soybean) | pest or weed control at 280.212 g/ha (barnyardgrass [3]) | plant injury at 280.212 g/ha (cotton) | plant injury at 280.212 g/ha (sugar beet) | pest or weed control at 280.212 g/ha (pigweed) | pest or weed control at 280.212 g/ha (crabgrass) | pest or weed control at 280.212 g/ha (velvetleaf) | plant injury at 280.212 g/ha (corn) | pest or weed control at 280.212 g/ha (wild oats) | plant injury at 280.212 g/ha (rape) | % NH4-N Remaining After 2 Weeks Incubation ([4]; 0.1 ppm) | % NH4-N Remaining After 2 Weeks Incubation ([4]; 1 ppm) | plant injury at 280.212 g/ha (sorghum) | further results
1 | Cc1cc(C)n2nc(S(=O)(=O)Nc3c(Cl)cc(F)cc3Cl)nc2n1 [Compound 44] | 70% | 90% | 80% | 20% | 70% | 70% | 100% | 80% | 40% | 85% | 97% | 95% | 90% | 0% | 10% | 40% | 93% | 42% | 71% | 93% | % NH4-N Remaining After 2 Weeks Incubation ([4]; 0.01 ppm): 0%; % NH4-N Remaining After 2 Weeks Incubation ([4]; 10 ppm): 95%
2 | Cc1nc2nc(S(=O)(=O)Nc3ccccc3C(F)(F)F)nn2c(C)c1C [Compound 112] | 25% | 90% | 30% | 80% | 0% | 0% | 0% | 0% | 0% | 80% | 99% | 90% | 97% | 20% | 50% | 90% | 85% |  | 65% | 20% | % NH4-N Remaining After 2 Weeks Incubation ([4]; 0.06 ppm): 31%; % NH4-N Remaining After 2 Weeks Incubation ([4]; 0.25 ppm): 53%; % NH4-N Remaining After 2 Weeks Incubation ([4]; 4 ppm): 72%
3 | Cc1cc(C)n2nc(S(=O)(=O)Nc3cccc(Cl)c3Cl)nc2n1 [Compound 19] | 20% | 40% | 0% | 50% | 0% | 0% | 0% | 20% | 0% | 90% | 90% | 90% | 20% | 70% | 0% | 0% | 95% |  |  | 0% | 
4 | COCc1cccc(Cl)c1NS(=O)(=O)c1nc2nc(C)cc(C)n2n1 [Compound 91] | 50% |  | 0% |  | 20% | 100% | 40% | 100% |  | 100% | 100% | 100% | 40% | 70% | 30% | 70% | 100% |  | 55% | 0% | % NH4-N Remaining After 2 Weeks Incubation ([4]; 0.06 ppm): 15%; % NH4-N Remaining After 2 Weeks Incubation ([4]; 0.25 ppm): 46%; % NH4-N Remaining After 2 Weeks Incubation ([4]; 4 ppm): 80%
5 | Cc1cc(C)n2nc(S(=O)(=O)Nc3ccccc3C(N)=O)nc2n1 [Compound 37] | 97% | 100% | 95% | 90% | 0% | 97% | 100% | 95% | 97% | 95% | 97% | 100% | 70% | 95% | 95% | 0% | 95% | 0% | 7% | 95% | % NH4-N Remaining After 2 Weeks Incubation ([4]; 0.01 ppm): 0%; % NH4-N Remaining After 2 Weeks Incubation ([4]; 10 ppm): 44%
6 | COc1cc(C)n2nc(S(=O)(=O)Nc3c(Cl)cccc3Cl)nc2n1 [Compound 178] | 0% | 0% | 0% | 10% |  | 0% | 0% | 0% | 25% | 65% | 95% | 60% | 0% | 40% | 0% |  | 80% | 0% | 43% | 0% | pest or weed control at 2000 g/ha (sprangletop): 0%; pest or weed control at 2000 g/ha (yellow nutsedge [5]): 90%; % NH4-N Remaining After 2 Weeks Incubation ([4]; 10 ppm): 91%; pest or weed control at 2000 g/ha (barnyardgrass [6]): 20%; pest or weed control at 2000 g/ha (rice [7]): 50%
7 | Cc1cccc(Cl)c1NS(=O)(=O)c1nc2nc(C)c(C)c(C)n2n1 [Compound 113] | 40% | 50% | 50% | 0% | 0% | 50% | 0% | 0% | 20% | 30% | 100% | 100% | 90% | 60% | 0% | 0% | 90% |  | 69% | 0% | % NH4-N Remaining After 2 Weeks Incubation ([4]; 0.06 ppm): 16%; % NH4-N Remaining After 2 Weeks Incubation ([4]; 0.25 ppm): 39%; % NH4-N Remaining After 2 Weeks Incubation ([4]; 4 ppm): 86%
